# Data: patent US10077261B2, “Imidazolin-5-one derivative useful as FASN inhibitors for the treatment of cancer” (Janssen Pharmaceutica NV, priority 2012, dated 2018)
# Key:
# [1] = tested on: LNCaP-Vancouver prostate cells; test: In vitro LNCaP Vancouver prostate cell proliferation assay in lipid reduced medium; format: cell-based; details: read-out: pIC50 LNCaP_Vancouver prostate cell (converted)
# A2780 ovarian cells [2] = test: A2780 ovarian cell proliferation assay in lipid reduced medium, with palmitate (MTT); format: cell-based; details: Homo sapiens, A2780, 96 h; read-out: pIC50 A2780 Ovarian Cell, With Palmitate (converted)
# In short: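 Seeded cells were switched next day to lipid-reduced serum, exposed to compound and 25 μM palmitate complexed with fatty-acid-free BSA, and incubated 96 h. Proliferation was then determined by MTT absorbance at 544 nm, with a best-fit curve of signal against concentration.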
# [3] = tested on: PC-3M-Luc-C6 prostate cells; test: In vitro PC-3M-Luc-C6 prostate cell proliferation assay in lipid reduced medium; format: cell-based; details: 96 h, read-out: pIC50 PC-3M-Luc-C6 prostate cell (converted)
# [4] = target: T1, hFASN enzyme (full length) (Homo sapiens, UniProt P49327); test: Fatty Acid Synthase (FASN) inhibition scintillation proximity assay; format: biochemical; details: for inhibition at 10 µM: read-out: Human FASN % inhibition @ 10 μM, 10 μM test compound; for IC50: read-out: Human FASN pIC50 (converted)
# T1 construct: 10 μL hFASN enzyme (full length, 300 ng, purified in house); made in house
# In short: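 Compounds at 0.01–30 μM were mixed with 300 ng purified full-length enzyme in 100 mM KH2PO4 pH 7.5, 1 mM DTT. Substrates ³H-acetyl-CoA and malonyl-CoA were then converted, and bead addition stopped the reaction. Signal was normalised to low and high plate controls and fitted by 4-parameter nonlinear regression.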
# A2780 ovarian cells [5] = test: A2780 ovarian cell proliferation assay in lipid reduced medium, without palmitate (MTT); format: cell-based; details: Homo sapiens, A2780, 96 h; read-out: pIC50 A2780 Ovarian Cell, Without Palmitate (converted)
# [6] = target: Fatty Acid Synthase Keto-reductase Domain (FASN KR) (Homo sapiens, UniProt P49327); test: Fatty Acid Synthase keto-reductase domain (FASN KR) inhibition, NADPH oxidation at 340 nm
# Fatty Acid Synthase Keto-reductase Domain (FASN KR), sequence (P49327 whole entry, the tested form may be a part): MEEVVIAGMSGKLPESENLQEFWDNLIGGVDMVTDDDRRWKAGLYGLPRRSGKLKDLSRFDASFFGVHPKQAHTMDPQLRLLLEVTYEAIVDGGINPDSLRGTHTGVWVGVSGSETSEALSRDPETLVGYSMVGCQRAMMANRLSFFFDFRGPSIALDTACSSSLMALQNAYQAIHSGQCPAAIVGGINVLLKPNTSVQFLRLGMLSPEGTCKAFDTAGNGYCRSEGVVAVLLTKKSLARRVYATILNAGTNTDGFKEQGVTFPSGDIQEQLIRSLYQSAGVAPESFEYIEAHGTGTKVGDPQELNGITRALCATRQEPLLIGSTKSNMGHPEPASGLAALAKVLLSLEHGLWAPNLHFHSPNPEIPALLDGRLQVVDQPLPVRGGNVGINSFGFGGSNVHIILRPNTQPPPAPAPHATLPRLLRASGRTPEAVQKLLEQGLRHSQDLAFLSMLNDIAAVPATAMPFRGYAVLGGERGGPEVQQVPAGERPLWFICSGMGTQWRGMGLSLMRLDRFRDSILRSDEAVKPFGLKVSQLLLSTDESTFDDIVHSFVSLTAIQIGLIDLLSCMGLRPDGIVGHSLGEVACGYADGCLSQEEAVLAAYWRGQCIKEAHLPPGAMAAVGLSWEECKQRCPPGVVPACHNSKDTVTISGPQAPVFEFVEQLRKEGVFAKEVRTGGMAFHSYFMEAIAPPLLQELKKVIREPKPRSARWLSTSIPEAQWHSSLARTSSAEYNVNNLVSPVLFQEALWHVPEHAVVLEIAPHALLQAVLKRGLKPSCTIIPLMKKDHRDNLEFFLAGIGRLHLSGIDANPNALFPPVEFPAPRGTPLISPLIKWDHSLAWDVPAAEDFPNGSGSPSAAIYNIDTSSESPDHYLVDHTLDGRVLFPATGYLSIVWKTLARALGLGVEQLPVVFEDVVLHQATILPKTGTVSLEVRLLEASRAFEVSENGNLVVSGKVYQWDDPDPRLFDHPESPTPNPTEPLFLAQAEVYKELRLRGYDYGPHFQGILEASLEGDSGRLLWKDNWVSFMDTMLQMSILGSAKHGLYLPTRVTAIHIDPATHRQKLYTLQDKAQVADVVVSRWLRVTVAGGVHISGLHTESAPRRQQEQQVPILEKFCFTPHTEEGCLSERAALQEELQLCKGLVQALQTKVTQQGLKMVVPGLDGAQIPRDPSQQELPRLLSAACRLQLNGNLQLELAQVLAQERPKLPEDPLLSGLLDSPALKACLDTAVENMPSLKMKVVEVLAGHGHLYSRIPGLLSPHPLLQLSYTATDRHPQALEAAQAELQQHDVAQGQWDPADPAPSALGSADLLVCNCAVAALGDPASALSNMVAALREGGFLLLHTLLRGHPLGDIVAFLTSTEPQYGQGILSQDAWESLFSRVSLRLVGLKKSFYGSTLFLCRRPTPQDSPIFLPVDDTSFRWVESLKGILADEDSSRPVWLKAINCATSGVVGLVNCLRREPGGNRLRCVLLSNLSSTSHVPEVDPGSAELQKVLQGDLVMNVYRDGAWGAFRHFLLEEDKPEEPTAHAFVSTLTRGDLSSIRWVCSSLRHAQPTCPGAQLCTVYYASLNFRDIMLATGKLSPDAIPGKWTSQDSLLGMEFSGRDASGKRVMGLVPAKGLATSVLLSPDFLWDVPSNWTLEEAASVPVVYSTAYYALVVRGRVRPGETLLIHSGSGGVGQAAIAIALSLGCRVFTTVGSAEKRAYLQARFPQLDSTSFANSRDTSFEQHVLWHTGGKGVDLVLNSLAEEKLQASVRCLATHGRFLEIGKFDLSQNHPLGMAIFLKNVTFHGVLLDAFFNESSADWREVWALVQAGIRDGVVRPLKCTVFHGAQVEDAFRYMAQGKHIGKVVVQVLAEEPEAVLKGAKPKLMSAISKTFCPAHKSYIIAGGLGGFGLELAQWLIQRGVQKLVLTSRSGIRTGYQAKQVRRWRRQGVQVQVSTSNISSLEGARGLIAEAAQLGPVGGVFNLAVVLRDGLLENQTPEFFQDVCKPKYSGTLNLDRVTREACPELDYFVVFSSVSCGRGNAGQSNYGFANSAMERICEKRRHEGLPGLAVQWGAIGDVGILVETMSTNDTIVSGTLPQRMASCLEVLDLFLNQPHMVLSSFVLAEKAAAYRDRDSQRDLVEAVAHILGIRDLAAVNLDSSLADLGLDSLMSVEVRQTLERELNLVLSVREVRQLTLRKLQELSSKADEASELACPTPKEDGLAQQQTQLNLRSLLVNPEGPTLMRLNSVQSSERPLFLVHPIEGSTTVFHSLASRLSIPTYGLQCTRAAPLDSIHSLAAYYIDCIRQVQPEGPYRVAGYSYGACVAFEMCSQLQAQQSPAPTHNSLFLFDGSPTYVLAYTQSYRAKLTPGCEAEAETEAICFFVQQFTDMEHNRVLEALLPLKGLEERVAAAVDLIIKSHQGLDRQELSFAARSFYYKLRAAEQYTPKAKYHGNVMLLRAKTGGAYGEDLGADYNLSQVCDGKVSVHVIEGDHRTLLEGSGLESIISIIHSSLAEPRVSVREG
# Protocol: After 20 minutes incubation at room temperature the plate was measured again (T2).
# The decrease in absorbance was calculated as (Absorbance before incubation T1)−(Absorbance following incubation T2).
# A plot of Controlmin versus test compound concentration was fitted to a 4-parameter logistic curve using a non-linear least squares regression method.
# T1 sequence (P49327 whole entry): as the sequence (P49327 whole entry, the tested form may be a part) above
SMILES,IC50 [1] [nM],IC50 (A2780 ovarian cells [2]) [nM],IC50 [3] [nM],inhibition at 10 µM [4] [%],IC50 [4] [nM],IC50 (A2780 ovarian cells [5]) [nM],IC50 [6] [nM]
"O=C(N1CC(CN2C(=O)C3(CC3)N=C2c2ccc(-c3ccc4cccc(F)c4c3)cc2F)C1)C1(O)CC1 [compound 374, 5-(2-fluoro-4-(8-fluoronaphthalen-2-yl)phenyl)-6-((1-(1-hydroxycyclopropanecarbonyl)azetidin-3-yl)methyl)-4,6-diazaspiro[2.4]hept-4-en-7-one]",87.1,> 10000,20.4,99,25.7,10,35.5
"O=C(C1CC1)N1CC[C@@H](CN2C(=O)C3(CC3)N=C2c2ccc(-c3ccc4occc4c3)cn2)C1 [compound 390, 5-[5-(1-Benzofuran-5-yl)pyridin-2-yl]-6-{[(3R)-1-(cyclopropylcarbonyl)pyrrolidin-3-yl]methyl}-4,6-diazaspiro[2.4]hept-4-en-7-one]",2750,> 10000,1480,99,324,~2630,676
"O=C(N1CC[C@@H](CN2C(=O)C3(CC3)N=C2c2ccc(-c3ccc4cc(F)ccc4c3)cc2F)C1)C1(O)CC1 [compound 381, (R)-5-(2-fluoro-4-(6-fluoronaphthalen-2-yl)phenyl)-6-((1-(1-hydroxycyclopropanecarbonyl)pyrrolidin-3-yl)methyl)-4,6-diazaspiro[2.4]hept-4-en-7-one]",10.5,> 10000,1.91,98,22.9,~2.51,35.5
"Cc1cc2cc(-c3ccc(C4=NC5(CC5)C(=O)N4CC4CN(C(=O)C5CC5)C4)c(C)c3)ccc2s1 [compound 391, 6-{[1-(Cyclopropylcarbonyl)azetidin-3-yl]methyl}-5-[2-methyl-4-(2-methyl-1-benzothiophen-5-yl)phenyl]-4,6-diazaspiro[2.4]hept-4-en-7-one]",1700,> 10000,724,104,129,1170,389
"Cn1nc(N)c2ccc(-c3ccc(C4=NC5(CC5)C(=O)N4C[C@@H]4CCN(C(=O)C5CC5)C4)cc3)cc21 [compound 483, 5-[4-(3-Amino-1-methyl-1H-indazol-6-yl)phenyl]-6-{[(3R)-1-(cyclopropylcarbonyl)pyrrolidin-3-yl]methyl}-4,6-diazaspiro[2.4]hept-4-en-7-one]",380,> 10000,~91.2,95,107,47.9,174
"Cn1ncc2cc(-c3ccc(C4=NC5(CC5)C(=O)N4CC4CN(C(=O)C5CC5)C4)c(Cl)c3)ccc21 [compound 584, 5-[2-Chloro-4-(1-methyl-1H-indazol-5-yl)phenyl]-6-{[1-(cyclopropylcarbonyl)azetidin-3-yl]methyl}-4,6-diazaspiro[2.4]hept-4-en-7-one]",646,6610,83.2,91,135,63.1,170
"Cn1nc(CO)c2ccc(-c3ccc(C4=NC5(CC5)C(=O)N4C[C@@H]4CCN(C(=O)C5CC5)C4)cc3)cc21 [compound 485, 6-{[(3R)-1-(Cyclopropylcarbonyl)pyrrolidin-3-yl]methyl}-5-{4-[3-(hydroxymethyl)-1-methyl-1H-indazol-6-yl]phenyl}-4,6-diazaspiro[2.4]hept-4-en-7-one]",631,> 10000,214,96,162,~123,302
"Cc1cc(-c2ccc3cc(Cl)ccc3c2)ccc1C1=NC2(CC2)C(=O)N1CC1CN(C(=O)C2(C)CC2)C1 [compound 321, 5-(4-(6-chloronaphthalen-2-yl)-2-methylphenyl)-6-((1-(1-methylcyclopropanecarbonyl)azetidin-3-yl)methyl)-4,6-diazaspiro[2.4]hept-4-en-7-one]",182,4370,50.1,99,30.2,17.8,47.9
"N#Cc1cc2cc(-c3ccc(C4=NC5(CC5)C(=O)N4C[C@@H]4CCN(C(=O)C5CC5)C4)cc3)ccc2o1 [compound 256, (R)-5-(4-(6-((1-(cyclopropanecarbonyl)pyrrolidin-3-yl)methyl)-7-oxo-4,6-diazaspiro[2.4]hept-4-en-5-yl)phenyl)benzofuran-2-carbonitrile]",2400,> 10000,~417,95,53.7,832,95.5
"COc1nccc2cc(-c3ccc(C4=NC5(CC5)C(=O)N4C[C@@H]4CCN(C(=O)C5CC5)C4)cc3)ccc12 [compound 468, 6-{[(3R)-1-(Cyclopropylcarbonyl)pyrrolidin-3-yl]methyl}-5-[4-(1-methoxyisoquinolin-6-yl)phenyl]-4,6-diazaspiro[2.4]hept-4-en-7-one]",2040,> 10000,550,90,427,661,1580
"O=C(C1CC1)N1CC[C@@H](CN2C(=O)C3(CC3)N=C2c2ccc(-c3ccc4cc[nH]c4c3)cc2)C1 [compound 301, (R)-5-(4-(1H-indol-6-yl)phenyl)-6-((1-(cyclopropanecarbonyl)pyrrolidin-3-yl)methyl)-4,6-diazaspiro[2.4]hept-4-en-7-one]",275,> 10000,12,99,20,14.8,27.5
"Cn1cnc2cc(-c3ccc(C4=NC5(CC5)C(=O)N4CC4CN(C(=O)C5CC5)C4)c(F)c3)ccc21 [compound 348, 6-((1-(cyclopropanecarbonyl)azetidin-3-yl)methyl)-5-(2-fluoro-4-(1-methyl-1H-benzo[d]imidazol-5-yl)phenyl)-4,6-diazaspiro[2.4]hept-4-en-7-one]",282,> 10000,40.7,96,63.1,28.8,87.1
"O=C(N1CC(CN2C(=O)C3(CC3)N=C2c2ccc(-c3ccc4ccc(F)cc4c3)cc2F)C1)C1(O)CC1 [compound 384, 5-(2-fluoro-4-(7-fluoronaphthalen-2-yl)phenyl)-6-((1-(1-hydroxycyclopropanecarbonyl)azetidin-3-yl)methyl)-4,6-diazaspiro[2.4]hept-4-en-7-one]",832,5250,166,100,63.1,72.4,~851
"O=C(C1CC1)N1CC(CN2C(=O)C3(CC3)N=C2c2ccc(-c3nc4cc(F)c(F)cc4s3)cc2F)C1 [compound 639, 6-{[1-(Cyclopropylcarbonyl)azetidin-3-yl]methyl}-5-[4-(5,6-difluoro-1,3-benzothiazol-2-yl)-2-fluorophenyl]-4,6-diazaspiro[2.4]hept-4-en-7-one]",2340,> 10000,794,97,282,~363,1450
"O=C(C1CC1)N1CC[C@@H](CN2C(=O)C3(CCCC3)N=C2c2ccc(-c3ccc4cn[nH]c4c3)cc2F)C1 [compound 879, (R)-3-((1-(cyclopropanecarbonyl)pyrrolidin-3-yl)methyl)-2-(2-fluoro-4-(1H-indazol-6-yl)phenyl)-1,3-diazaspiro[4.4]non-1-en-4-one]",380,> 10000,30.9,104,41.7,25.1,55
"COc1cccc2ccc(-c3ccc(C4=NC5(CC5)C(=O)N4CC4CN(C(=O)C5(O)CC5)C4)c(F)c3)cc12 [compound 375, 5-(2-fluoro-4-(8-methoxynaphthalen-2-yl)phenyl)-6-((1-(1-hydroxycyclopropanecarbonyl)azetidin-3-yl)methyl)-4,6-diazaspiro[2.4]hept-4-en-7-one]",457,> 10000,77.6,103,43.7,72.4,89.1
"Cc1cc(-c2ccc(-c3cnn(C4CCC4)c3)cc2)ccc1C1=NC2(CC2)C(=O)N1CC1CN(C(=O)C2(C)CC2)C1 [compound 338, 5-(4′-(1-cyclobutyl-1H-pyrazol-4-yl)-3-methyl-[1,1′-biphenyl]-4-yl)-6-((1-(1-methylcyclopropanecarbonyl)azetidin-3-yl)methyl)-4,6-diazaspiro[2.4]hept-4-en-7-one]",126,~4270,19.1,106,43.7,21.9,148
